This note sets out measurements from the Kinase Knowledgebase extract (Sharma et al. 2016).

Where only a bound is given, the exact number is not on record here.

In this assay the target is ROCK2 (human) (UniProt O75116). Kind of assay: Inhibition of ROCK2 Kinase Activity.
Chain of ROCK2 (human) (O75116 whole entry, looked up): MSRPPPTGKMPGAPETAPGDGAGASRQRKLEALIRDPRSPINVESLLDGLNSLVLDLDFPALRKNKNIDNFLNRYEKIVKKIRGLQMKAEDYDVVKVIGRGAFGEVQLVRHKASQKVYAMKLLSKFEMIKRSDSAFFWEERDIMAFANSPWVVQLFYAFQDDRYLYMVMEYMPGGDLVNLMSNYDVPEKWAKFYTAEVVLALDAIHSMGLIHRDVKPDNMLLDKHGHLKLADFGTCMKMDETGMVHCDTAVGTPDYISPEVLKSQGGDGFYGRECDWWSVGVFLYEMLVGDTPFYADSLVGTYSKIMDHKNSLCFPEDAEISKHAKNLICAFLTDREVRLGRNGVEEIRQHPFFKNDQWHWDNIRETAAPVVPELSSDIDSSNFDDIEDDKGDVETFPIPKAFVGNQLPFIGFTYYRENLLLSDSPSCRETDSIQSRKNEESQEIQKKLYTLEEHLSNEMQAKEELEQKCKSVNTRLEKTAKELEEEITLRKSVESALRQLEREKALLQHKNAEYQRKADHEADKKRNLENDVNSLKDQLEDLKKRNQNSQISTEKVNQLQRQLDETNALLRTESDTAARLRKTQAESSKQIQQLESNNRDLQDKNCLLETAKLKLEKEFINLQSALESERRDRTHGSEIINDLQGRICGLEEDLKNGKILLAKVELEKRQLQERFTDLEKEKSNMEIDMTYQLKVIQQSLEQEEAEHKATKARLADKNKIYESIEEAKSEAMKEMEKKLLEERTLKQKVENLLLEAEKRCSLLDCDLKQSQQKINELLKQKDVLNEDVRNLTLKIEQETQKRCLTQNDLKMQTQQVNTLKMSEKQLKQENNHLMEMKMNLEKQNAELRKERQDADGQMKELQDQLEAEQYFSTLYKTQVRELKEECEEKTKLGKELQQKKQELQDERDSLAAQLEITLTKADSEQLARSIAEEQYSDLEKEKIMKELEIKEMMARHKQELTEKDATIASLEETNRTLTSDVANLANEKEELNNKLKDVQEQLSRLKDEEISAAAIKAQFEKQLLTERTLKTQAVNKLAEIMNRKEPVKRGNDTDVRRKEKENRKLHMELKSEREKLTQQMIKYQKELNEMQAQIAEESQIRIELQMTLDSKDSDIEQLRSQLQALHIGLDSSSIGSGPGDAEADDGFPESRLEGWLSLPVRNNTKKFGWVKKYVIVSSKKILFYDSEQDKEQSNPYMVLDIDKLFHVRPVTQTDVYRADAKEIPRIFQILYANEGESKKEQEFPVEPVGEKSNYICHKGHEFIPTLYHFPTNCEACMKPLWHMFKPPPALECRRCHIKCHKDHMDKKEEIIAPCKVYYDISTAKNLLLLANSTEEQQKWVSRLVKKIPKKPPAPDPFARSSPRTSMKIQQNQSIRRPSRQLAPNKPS

With `COC1=CC(OC)(C(=O)NCc2nc(-c3ccncc3)n[nH]2)C=C1` (centres undefined), the half-maximal inhibitory concentration (IC50) (usually the concentration at which inhibition is half-maximal) was more than 5 µM.
Take `COc1ccc(C(=O)NCc2nc(-c3c[nH]c4ncccc34)n[nH]2)c(OC)c1`: the IC50 was more than 5 µM.
`O=C(NCc1nc(-c2c[nH]c3ncccc23)n[nH]1)c1ccc(C(F)(F)F)cc1[N+](=O)[O-]` had a half-inhibitory concentration (IC50) of more than 5 µM.
`O=C(NCc1c[nH]c(-c2ccncc2)n1)c1ccc(O)cc1O` showed an IC50 not above 5 µM.
Molecule `O=C(C=Cc1ccccc1O)NCc1nc(-c2ccncc2)n[nH]1` registered a concentration for half-maximal inhibition (IC50) of more than 5 µM.
For `CC(C)C(=O)Oc1ccc(C(=O)NCc2nc(-c3ccncc3)n[nH]2)c(O)c1`, the IC50 is not above 5 µM.
`CC(=O)Oc1ccccc1C(=O)NCc1nc(-c2c[nH]c3ncccc23)n[nH]1` came in with an IC50 of more than 5 µM.
As for `Cc1ccc(C(=O)NCc2nc(-c3ccncc3)n[nH]2)cc1Br`, the IC50 was more than 5 µM.
In the case of `COc1cc(OC)c(C(=O)NCc2nc(-c3c[nH]c4ncccc34)n[nH]2)c(OC)c1` it was more than 5 µM; in that of `N#Cc1ccc(C(=O)NCc2nc(-c3ccncc3)n[nH]2)cc1`, more than 5 µM.
On to `O=C(NCc1nc(-c2c[nH]c3ncccc23)n[nH]1)c1ccc(Cl)cc1O`, for which the 50% inhibitory concentration (IC50) is more than 5 µM.
`Cc1c(C(=O)NCc2nc(-c3c[nH]c4ncccc34)n[nH]2)cccc1[N+](=O)[O-]` showed an IC50 of more than 5 µM.
Consider `CC(=O)Nc1cccc(C(=O)NCc2nc(-c3ccncc3)n[nH]2)c1`, for which the IC50 is more than 5 µM.
For the molecule `O=C(NCc1nc(-c2c[nH]c3ncccc23)n[nH]1)c1ccccc1C(=O)c1ccc(F)cc1`, the half-maximal inhibitory concentration (IC50) is more than 5 µM.
In the case of `O=C(NCc1nc(-c2ccncc2)n[nH]1)c1c(F)cccc1F` it was more than 5 µM; in that of `CC(C)CC(NC(=O)OC(C)(C)C)C(=O)NCc1nc(-c2c[nH]c3ncccc23)n[nH]1` (centres undefined), more than 5 µM.
Turning to `O=C(NCc1nc(-c2c[nH]c3ncccc23)n[nH]1)c1cc(Cl)ccc1Cl`, the IC50 was more than 5 µM.
In the case of `O=Cc1ccc(C(=O)NCc2nc(-c3c[nH]c4ncccc34)n[nH]2)cc1`, the IC50 is more than 5 µM.
In the case of `CCC(=O)C(=O)NCc1nc(-c2ccncc2)n[nH]1` it was more than 5 µM; in that of `O=C(NCc1nc(-c2c[nH]c3ncccc23)n[nH]1)c1ccc(OCc2ccccc2)cc1`, more than 5 µM; in that of `Cc1cccc(C(=O)NCc2nc(-c3ccncc3)c[nH]2)c1O`, not above 5 µM.
Molecule `CC(=O)NCC(=O)NCc1nc(-c2c[nH]c3ncccc23)n[nH]1` registered a concentration for half-maximal inhibition (IC50) of more than 5 µM.
`O=C(NCc1nc(-c2ccncc2)n[nH]1)c1cc(Br)ccc1Cl`: the IC50 is more than 5 µM.
Next, `O=C(NCc1nc(-c2c[nH]c3ncccc23)n[nH]1)c1cccc(O)c1`: more than 5 µM; `Cc1cccc(C(=O)NCc2nc(-c3ccncc3)n[nH]2)c1[N+](=O)[O-]`: more than 5 µM.
Next, `O=C(Cc1ccc2c(c1)OCO2)NCc1nc(-c2ccncc2)n[nH]1`: more than 5 µM; `O=C(C=Cc1ccccc1F)NCc1nc(-c2c[nH]c3ncccc23)n[nH]1`: more than 5 µM.
In the case of `O=C(NCc1nc(-c2c[nH]c3ncccc23)n[nH]1)c1ccnc(Cl)c1` it was more than 5 µM; in that of `CC(C)C(C(=O)NCc1nc(-c2ccncc2)n[nH]1)N(C)C(=O)OC(C)(C)C` (centres undefined), more than 5 µM.
For the molecule `O=C(c1cccs1)N1CCn2nc(-c3ccncc3)nc2C1`, the IC50 was more than 5 µM.
Molecule `O=C(NCc1nc(-c2ccncc2)n[nH]1)c1cc(F)ccc1[N+](=O)[O-]` displayed an IC50 of more than 5 µM.
In the case of `O=C(Cc1ccc(O)c(F)c1)NCc1nc(-c2c[nH]c3ncccc23)n[nH]1` it was more than 5 µM.
Regarding `CC(=O)Nc1cccc(C(=O)NCc2nc(-c3c[nH]c4ncccc34)n[nH]2)c1`, the IC50 was more than 5 µM.
In the case of `Cc1ccccc1C(=O)NCc1nc(-c2c[nH]c3ncccc23)n[nH]1` it was more than 5 µM; in that of `CS(=O)(=O)Nc1ccccc1C(=O)NCc1nc(-c2ccncc2)n[nH]1`, more than 5 µM; in that of `O=C(NCc1nc(-c2ccncc2)n[nH]1)c1ccccc1C(=O)c1ccc(O)cc1`, more than 5 µM.
Molecule `COc1ccc(C=CC(=O)NCc2nc(-c3ccncc3)n[nH]2)cc1O` gave a concentration for half-maximal inhibition (IC50) of more than 5 µM.
For `COc1ccc2cc(C(C)C(=O)NCc3nc(-c4ccncc4)n[nH]3)ccc2c1` (centres undefined), the half-maximal inhibitory concentration (IC50) was more than 5 µM.
In the case of `O=C(NCc1nc(-c2ccncc2)n[nH]1)c1csc2ccccc12` it was more than 5 µM.
Next, `Cc1cccc(C(=O)NCc2nc(-c3ccncc3)n[nH]2)c1O`: not above 5 µM.
Next, `Cc1cccc(CCC(=O)NCc2nc(-c3ccncc3)n[nH]2)c1`: more than 5 µM; `O=C(NCc1nc(-c2c[nH]c3ncccc23)n[nH]1)c1cccnc1Cl`: more than 5 µM; `O=C(NCc1nc(-c2c[nH]c3ncccc23)n[nH]1)c1cc(O)c(O)c(O)c1`: more than 5 µM.
Consider `O=C(NCc1nc(-c2ccncc2)n[nH]1)C(O)CCl` (centres undefined), for which the IC50 was more than 5 µM.
In the case of `CC(C)(C)C(=O)NCc1nc(-c2c[nH]c3ncccc23)n[nH]1` it was more than 5 µM; in that of `CC(C)CC(=O)NCc1nc(-c2c[nH]c3ncccc23)n[nH]1`, more than 5 µM.
In turn, `O=C(NCc1nc(-c2ccncc2)n[nH]1)c1ccc2ncccc2c1` displayed an IC50 of more than 5 µM.
Next, `COc1ccccc1C=CC(=O)NCc1nc(-c2ccncc2)n[nH]1`: more than 5 µM; `CC(C)c1ccc(C(=O)NCc2nc(-c3c[nH]c4ncccc34)n[nH]2)cc1`: more than 5 µM.
In the case of `COc1ccc(NC(=O)NCc2nc(-c3ccncc3)n[nH]2)c(OC)c1` it was more than 5 µM; in that of `O=C(NCc1nc(-c2ccncc2)n[nH]1)c1cccc(Cl)c1O`, not above 5 µM.
Molecule `CC(C)c1cc(C(=O)NCc2nc(-c3ccncc3)n[nH]2)c(O)c(C(C)C)c1` had an IC50 of more than 5 µM.
In the case of `O=C(NCc1nnc(-c2ccnc3[nH]ccc23)o1)c1ccc(O)cc1O` it was not above 5 µM; in that of `CC(C)(C)C(=O)Oc1ccc(C(=O)NCc2nc(-c3ccncc3)n[nH]2)c(O)c1`, more than 5 µM; in that of `Cc1ccc(SCC(=O)NCc2nc(-c3c[nH]c4ncccc34)n[nH]2)cc1`, more than 5 µM.
Next, `O=C(CCc1ccccc1O)NCc1nc(-c2ccncc2)n[nH]1`: more than 5 µM.
In turn, `CC(C)(C)OC(=O)NCC(=O)NCc1nc(-c2c[nH]c3ncccc23)n[nH]1` showed an IC50 of more than 5 µM.
With `NC1CCN(C(=O)Cc2nc(-c3ccncc3)n[nH]2)C1` (centres undefined), the IC50 is more than 5 µM.
Turning to `O=C(NCc1nc(-c2c[nH]c3ncccc23)n[nH]1)c1ccc(Cl)cc1[N+](=O)[O-]`, the IC50 was more than 5 µM.
As to `O=C(Cc1ccc(O)c(Cl)c1)NCc1nc(-c2c[nH]c3ncccc23)n[nH]1`, the IC50 was more than 5 µM.
Turning to `Cc1ccc(C(=O)NCc2nc(-c3c[nH]c4ncccc34)n[nH]2)cc1Br`, the half-inhibitory concentration (IC50) was more than 5 µM.
In the case of `O=C(C=Cc1ccccc1F)NCc1nc(-c2ccncc2)n[nH]1` it was more than 5 µM.
In the case of `O=C(NCc1nc(-c2c[nH]c3ncccc23)n[nH]1)c1cccnc1`, the IC50 is more than 5 µM.
Next, `COc1cc(C=CC(=O)NCc2nc(-c3c[nH]c4ncccc34)n[nH]2)ccc1O`: more than 5 µM; `O=C(Cc1cccc(O)c1)NCc1nc(-c2c[nH]c3ncccc23)n[nH]1`: more than 5 µM; `O=C(NCc1nc(-c2c[nH]c3ncccc23)n[nH]1)c1csc2ccccc12`: more than 5 µM.
In the case of `COc1cccc(C(=O)NCc2nc(-c3c[nH]c4ncccc34)n[nH]2)c1OC` it was more than 5 µM.
Next, `CC(C(=O)NCc1nc(-c2c[nH]c3ncccc23)n[nH]1)c1cccc(C(=O)OCc2ccccc2)c1` (centres undefined): more than 5 µM; `COc1ccc(C(=O)NCc2nc(-c3c[nH]c4ncccc34)n[nH]2)c(OC)c1OC`: more than 5 µM.
For the molecule `Cn1nc(-c2ccncc2)nc1CNC(=O)c1cccs1`, the concentration for half-maximal inhibition (IC50) is more than 5 µM.
Turning to `O=C(NCc1nc(-c2c[nH]c3ncccc23)n[nH]1)c1cc(F)cc(F)c1`, the IC50 is more than 5 µM.
`CCCOc1ccc(C(=O)NCc2nc(-c3c[nH]c4ncccc34)n[nH]2)cc1` gave an IC50 of more than 5 µM.
On to `CCOc1ccc2ccccc2c1C(=O)NCc1nc(-c2c[nH]c3ncccc23)n[nH]1`, for which the IC50 was more than 5 µM.
In the case of `O=C(NCc1nc(-c2c[nH]c3ncccc23)n[nH]1)c1ccc(I)cc1` it was more than 5 µM; in that of `O=C(NCc1nc(-c2ccncc2)n[nH]1)c1ccc(OCc2ccccc2)cc1`, more than 5 µM; in that of `O=C(NCc1nc(-c2c[nH]c3ncccc23)n[nH]1)C1=C(O)CC=CC([N+](=O)[O-])=C1`, more than 5 µM.
In the case of `CCCCCCCC(=O)NCc1nc(-c2c[nH]c3ncccc23)n[nH]1` it was more than 5 µM; in that of `Cc1ccc(C(=O)CCC(=O)NCc2nc(-c3c[nH]c4ncccc34)n[nH]2)cc1`, more than 5 µM; in that of `CCC(C)C(NC(=O)OC(C)(C)C)C(=O)NCc1nc(-c2c[nH]c3ncccc23)n[nH]1` (centres undefined), more than 5 µM.
In the case of `Cc1ccsc1C(=O)NCc1nc(-c2ccncc2)n[nH]1` it was not above 5 µM; in that of `O=C(NCc1nc(-c2c[nH]c3ncccc23)n[nH]1)c1c2ccccc2cc2ccccc12`, more than 5 µM; in that of `O=C(NCc1nc(-c2ccncc2)c[nH]1)c1ccc(O)cc1O`, not above 5 µM.
Molecule `O=C(CCc1nc2ccccc2[nH]1)NCc1nc(-c2c[nH]c3ncccc23)n[nH]1` showed an IC50 of more than 5 µM.
In turn, `COc1ccc(C(=O)NCc2nc(-c3ccncc3)no2)cc1` had an IC50 of more than 5 µM.
In the case of `O=C(NCc1nc(-c2ccncc2)n[nH]1)c1cc([N+](=O)[O-])ccc1O`, the IC50 was more than 5 µM.
Next, `Cc1cccc(C(=O)NCc2c[nH]c(-c3ccncc3)n2)c1O`: more than 5 µM; `CC(=O)Oc1ccccc1C(=O)NCc1nc(-c2ccncc2)n[nH]1`: not above 5 µM.
`O=Cc1ccccc1C(=O)NCc1nc(-c2ccncc2)n[nH]1` displayed a concentration for half-maximal inhibition (IC50) of more than 5 µM.
Turning to `O=C(NCc1nc(-c2c[nH]c3ncccc23)n[nH]1)c1ccc(F)c([N+](=O)[O-])c1`, the IC50 is more than 5 µM.
The molecule `O=C(NCc1nc(-c2c[nH]c3ncccc23)n[nH]1)c1cc(Cl)ccn1` gave an IC50 of more than 5 µM.
In the case of `O=C(NCc1nc(-c2c[nH]c3ncccc23)n[nH]1)c1ccc(O)cc1O` it was not above 5 µM.
In the case of `Cc1cccc(C(=O)NCc2nc(-c3ccncc3)n[nH]2)c1` it was more than 5 µM; in that of `Cc1cc(C(=O)NCc2nc(-c3ccncc3)n[nH]2)ccc1Br`, more than 5 µM; in that of `COc1cc(Cl)ccc1C(=O)NCc1nc(-c2ccncc2)n[nH]1`, more than 5 µM.
